Series [1] is described as follows: Biodistribution of In-111-DTPA and large liposomes. As to conditions: in vivo. The source says:
FIGS. 10A-10C depict the biodistribution of ^111In-DTPA only (FIG. 10A) zwitterionic liposomes (FIG. 10B), ^111In-DTPA cationic liposomes (FIG. 10C).
Over time the percentage per gram of tissue tested of the original amount of In-111 found in the spleen and liver increases while that in blood and other tissues such as heart, lungs, stomach, intestines, kidneys, bone, and muscle remain constant or decrease. […] Preinjection with empty large liposomes to saturate the reticuloendothelial organs will reduce non-specific radionuclide uptake by the spleen and liver.

For a further series, the system named is myeloid leukemia. As to conditions: first injection of an alpha-particle emitter to humans; cited from earlier work.

For `O=C([O-])CN(CCN(CC(=O)[O-])CC(=O)[O-])CCN(CC(=O)[O-])CC(=O)[O-].[111In+3].[H+].[H+]` [DTPA-chelated In-111], the “tissue localization of In-111” value in series [1] was “localize to the kidneys more than to other tissues”.

Take “HuM195: 213Bi conjugated to the anti-CD33 antibody HuM195”: the trial outcome in the series on myeloid leukemia is “feasibility and anti-cancer activity with minimal toxicity”.

The record behind these values is US20040166060A1, “Liposomal encapsulation of alpha particle emittors and uses thereof” (Sloan Kettering Institute for Cancer Research, priority 2000, published 2004).
